{"source": "patent US7731971B2", "about": "“Enhanced CTL epitope-containing HIV-1 reverse transcriptase polypeptides” (The United States of America as represented by the …, priority 2003, dated 2010)", "key": {"[1]": {"test_system": "vaccinia virus expressing a β-galactosidase protein (vSC8)", "parameters": "species or system HHD-2 mice", "settings": "mouse, in vivo"}, "[2]": {"test_system": "vaccinia virus expressing a reverse transcriptase protein of HIV (vCF21)", "parameters": "species or system HHD-2 mice", "settings": "mouse, in vivo"}}}
{"sequence": "YLYQYMDDV", "values": [{"measurement": "protection against vaccinia strain (vSC8) that does not express RT", "setting": "[1]", "value": "Neither population of mice displayed protection"}, {"measurement": "protection against vCF21 infection", "setting": "[2]", "value": "only partially protected"}]}
